Data published in ChEMBL document CHEMBL5291721, “A preclinical secondary pharmacology resource illuminates target-adverse drug reaction associations of marketed drugs” (Nat Commun, 2023).

Key:
[1] = molecular target: T1, Type-1 angiotensin II receptor (Homo sapiens, UniProt P30556)
T1 sequence (P30556 whole entry): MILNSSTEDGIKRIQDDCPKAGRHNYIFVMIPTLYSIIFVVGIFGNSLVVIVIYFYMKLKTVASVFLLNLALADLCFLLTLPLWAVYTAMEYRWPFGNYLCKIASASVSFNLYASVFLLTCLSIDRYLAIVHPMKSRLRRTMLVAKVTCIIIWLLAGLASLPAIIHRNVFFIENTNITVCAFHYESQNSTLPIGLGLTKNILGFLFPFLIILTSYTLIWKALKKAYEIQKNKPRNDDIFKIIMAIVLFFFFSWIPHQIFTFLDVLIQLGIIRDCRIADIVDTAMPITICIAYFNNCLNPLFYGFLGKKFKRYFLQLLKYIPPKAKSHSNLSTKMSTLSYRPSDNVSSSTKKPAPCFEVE

[2] = molecular target: T2, Muscarinic acetylcholine receptor M2 (Homo sapiens, UniProt P08172); format: functional, cell-based
T2 sequence (P08172 whole entry): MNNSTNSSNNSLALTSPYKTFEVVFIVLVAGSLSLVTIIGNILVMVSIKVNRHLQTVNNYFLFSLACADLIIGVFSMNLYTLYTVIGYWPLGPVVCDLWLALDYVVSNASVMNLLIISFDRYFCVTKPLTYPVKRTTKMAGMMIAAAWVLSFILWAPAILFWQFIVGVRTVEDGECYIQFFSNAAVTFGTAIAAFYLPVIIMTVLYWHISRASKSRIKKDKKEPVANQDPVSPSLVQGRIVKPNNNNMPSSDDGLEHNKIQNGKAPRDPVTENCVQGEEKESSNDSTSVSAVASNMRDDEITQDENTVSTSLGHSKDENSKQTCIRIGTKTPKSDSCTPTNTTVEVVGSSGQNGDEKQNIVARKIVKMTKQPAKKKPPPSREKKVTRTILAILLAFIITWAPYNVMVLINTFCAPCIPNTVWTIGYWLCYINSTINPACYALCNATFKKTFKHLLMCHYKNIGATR

[3] = molecular target: T3, Alpha-2A adrenergic receptor (Homo sapiens, UniProt P08913); format: functional, cell-based
T3 sequence (P08913 whole entry): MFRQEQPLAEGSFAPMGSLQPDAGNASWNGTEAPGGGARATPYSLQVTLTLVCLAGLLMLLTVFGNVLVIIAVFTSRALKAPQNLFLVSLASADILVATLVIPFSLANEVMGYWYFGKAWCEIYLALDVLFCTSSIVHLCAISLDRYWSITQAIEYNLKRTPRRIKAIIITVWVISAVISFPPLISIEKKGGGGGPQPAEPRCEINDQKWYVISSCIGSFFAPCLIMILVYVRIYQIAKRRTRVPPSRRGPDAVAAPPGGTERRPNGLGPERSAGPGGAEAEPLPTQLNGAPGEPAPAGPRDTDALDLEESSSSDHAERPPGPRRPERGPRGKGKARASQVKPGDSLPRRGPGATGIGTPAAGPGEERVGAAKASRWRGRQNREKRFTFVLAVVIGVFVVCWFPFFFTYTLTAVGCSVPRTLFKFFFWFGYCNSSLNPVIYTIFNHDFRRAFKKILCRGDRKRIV

[4] = molecular target: Growth hormone secretagogue receptor type 1 (Homo sapiens, UniProt Q92847)
[5] = molecular target: Motilin receptor (Homo sapiens, UniProt O43193)
[6] = molecular target: cGMP-inhibited 3',5'-cyclic phosphodiesterase 3A (Homo sapiens, UniProt Q14432); format: functional
[7] = molecular target: T4, 5-hydroxytryptamine receptor 1A (Homo sapiens, UniProt P08908); format: functional, cell-based
T4 sequence (P08908 whole entry): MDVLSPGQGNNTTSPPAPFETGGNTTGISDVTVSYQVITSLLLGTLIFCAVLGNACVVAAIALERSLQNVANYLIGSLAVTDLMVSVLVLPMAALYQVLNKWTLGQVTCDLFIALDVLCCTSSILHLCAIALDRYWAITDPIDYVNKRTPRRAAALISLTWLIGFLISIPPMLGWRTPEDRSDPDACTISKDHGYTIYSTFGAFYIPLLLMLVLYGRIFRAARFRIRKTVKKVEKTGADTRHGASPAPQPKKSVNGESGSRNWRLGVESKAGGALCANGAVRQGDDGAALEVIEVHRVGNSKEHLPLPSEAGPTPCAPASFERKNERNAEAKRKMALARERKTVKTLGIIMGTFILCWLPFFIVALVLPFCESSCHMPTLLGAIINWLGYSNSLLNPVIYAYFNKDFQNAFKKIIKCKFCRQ

[8] = molecular target: 3',5'-cyclic-AMP phosphodiesterase 4D (Homo sapiens, UniProt Q08499); format: functional
[9] = molecular target: T5, Amine oxidase [flavin-containing] A (Homo sapiens, UniProt P21397); format: functional
T5 sequence (P21397 whole entry): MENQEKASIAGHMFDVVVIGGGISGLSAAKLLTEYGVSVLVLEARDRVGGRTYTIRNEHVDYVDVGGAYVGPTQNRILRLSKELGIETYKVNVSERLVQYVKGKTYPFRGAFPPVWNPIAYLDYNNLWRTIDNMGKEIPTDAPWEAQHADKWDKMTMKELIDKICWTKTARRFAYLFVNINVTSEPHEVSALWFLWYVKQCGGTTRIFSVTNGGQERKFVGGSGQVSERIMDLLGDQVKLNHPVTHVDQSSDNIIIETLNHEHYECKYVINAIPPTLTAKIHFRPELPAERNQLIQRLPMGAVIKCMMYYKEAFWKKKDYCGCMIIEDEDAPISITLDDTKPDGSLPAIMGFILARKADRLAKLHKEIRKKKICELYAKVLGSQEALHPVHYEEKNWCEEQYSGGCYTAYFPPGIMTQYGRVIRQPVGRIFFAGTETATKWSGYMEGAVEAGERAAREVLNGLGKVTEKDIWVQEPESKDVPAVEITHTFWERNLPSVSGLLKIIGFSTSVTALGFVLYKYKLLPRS

[10] = molecular target: T3, Alpha-2A adrenergic receptor; format: functional, cell-based; remark: listed apart in the source
[11] = molecular target: Delta-type opioid receptor (Homo sapiens, UniProt P41143)
Note: assay procedure not described here.

Sequence of Growth hormone secretagogue receptor type 1 (Q92847 whole entry): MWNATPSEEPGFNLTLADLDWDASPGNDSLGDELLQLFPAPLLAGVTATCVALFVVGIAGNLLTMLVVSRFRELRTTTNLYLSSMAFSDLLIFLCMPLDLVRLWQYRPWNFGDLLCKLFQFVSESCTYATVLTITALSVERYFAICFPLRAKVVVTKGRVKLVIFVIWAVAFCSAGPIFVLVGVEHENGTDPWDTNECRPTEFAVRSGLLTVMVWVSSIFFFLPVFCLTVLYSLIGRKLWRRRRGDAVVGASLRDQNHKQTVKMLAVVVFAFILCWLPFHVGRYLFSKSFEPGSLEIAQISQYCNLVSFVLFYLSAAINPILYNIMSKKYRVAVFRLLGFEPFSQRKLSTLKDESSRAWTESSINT
Sequence of Motilin receptor (O43193 whole entry): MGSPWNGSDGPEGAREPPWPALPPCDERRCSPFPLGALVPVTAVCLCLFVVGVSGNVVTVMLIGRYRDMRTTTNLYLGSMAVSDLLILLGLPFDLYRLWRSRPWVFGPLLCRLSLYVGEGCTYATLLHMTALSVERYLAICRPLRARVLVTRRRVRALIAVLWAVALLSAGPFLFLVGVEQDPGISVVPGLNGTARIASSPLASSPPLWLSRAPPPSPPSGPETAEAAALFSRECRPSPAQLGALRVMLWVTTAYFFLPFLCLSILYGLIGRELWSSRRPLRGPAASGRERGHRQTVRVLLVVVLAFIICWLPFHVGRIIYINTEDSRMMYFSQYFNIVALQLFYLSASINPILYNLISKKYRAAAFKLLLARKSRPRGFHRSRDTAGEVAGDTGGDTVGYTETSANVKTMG
Sequence of Delta-type opioid receptor (P41143 whole entry): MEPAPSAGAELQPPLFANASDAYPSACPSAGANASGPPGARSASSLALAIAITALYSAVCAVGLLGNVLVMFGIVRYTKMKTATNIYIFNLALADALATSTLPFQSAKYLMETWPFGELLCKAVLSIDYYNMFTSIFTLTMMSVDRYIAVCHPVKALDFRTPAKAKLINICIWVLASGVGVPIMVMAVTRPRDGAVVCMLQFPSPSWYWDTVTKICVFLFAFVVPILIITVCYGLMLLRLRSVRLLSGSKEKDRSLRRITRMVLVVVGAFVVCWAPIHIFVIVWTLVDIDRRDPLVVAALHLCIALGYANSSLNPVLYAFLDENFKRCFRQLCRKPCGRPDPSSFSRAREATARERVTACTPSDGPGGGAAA
Sequence of cGMP-inhibited 3',5'-cyclic phosphodiesterase 3A (Q14432 whole entry): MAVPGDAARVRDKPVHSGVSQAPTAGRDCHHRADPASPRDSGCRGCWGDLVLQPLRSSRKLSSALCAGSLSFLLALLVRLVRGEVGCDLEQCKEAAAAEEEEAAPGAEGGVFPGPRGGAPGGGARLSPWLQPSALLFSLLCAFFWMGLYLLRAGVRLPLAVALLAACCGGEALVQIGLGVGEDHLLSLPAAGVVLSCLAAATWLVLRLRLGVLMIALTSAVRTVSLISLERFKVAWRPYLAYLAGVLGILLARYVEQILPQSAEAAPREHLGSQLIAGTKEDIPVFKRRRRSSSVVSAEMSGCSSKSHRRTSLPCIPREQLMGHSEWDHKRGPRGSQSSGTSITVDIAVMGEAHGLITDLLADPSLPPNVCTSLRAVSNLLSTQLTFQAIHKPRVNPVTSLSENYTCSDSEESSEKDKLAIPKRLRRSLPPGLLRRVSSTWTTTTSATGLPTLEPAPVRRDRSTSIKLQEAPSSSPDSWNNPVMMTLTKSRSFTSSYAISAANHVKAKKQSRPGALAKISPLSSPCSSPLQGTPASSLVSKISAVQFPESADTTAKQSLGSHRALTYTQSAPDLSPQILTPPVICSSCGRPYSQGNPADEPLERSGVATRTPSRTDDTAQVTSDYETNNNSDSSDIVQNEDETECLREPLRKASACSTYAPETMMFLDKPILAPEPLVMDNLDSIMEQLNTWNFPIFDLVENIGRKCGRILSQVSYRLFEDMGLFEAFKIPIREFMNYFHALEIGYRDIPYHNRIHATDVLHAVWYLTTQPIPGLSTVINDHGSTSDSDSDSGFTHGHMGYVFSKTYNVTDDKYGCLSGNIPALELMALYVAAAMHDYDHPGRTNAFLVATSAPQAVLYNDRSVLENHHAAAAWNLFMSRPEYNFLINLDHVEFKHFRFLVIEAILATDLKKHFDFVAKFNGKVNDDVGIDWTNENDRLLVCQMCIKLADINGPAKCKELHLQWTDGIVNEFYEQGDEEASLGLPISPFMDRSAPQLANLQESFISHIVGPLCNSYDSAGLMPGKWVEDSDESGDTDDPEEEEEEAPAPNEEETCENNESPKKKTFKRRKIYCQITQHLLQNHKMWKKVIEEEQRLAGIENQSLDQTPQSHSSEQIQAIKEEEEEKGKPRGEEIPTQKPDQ
Sequence of 3',5'-cyclic-AMP phosphodiesterase 4D (Q08499 whole entry): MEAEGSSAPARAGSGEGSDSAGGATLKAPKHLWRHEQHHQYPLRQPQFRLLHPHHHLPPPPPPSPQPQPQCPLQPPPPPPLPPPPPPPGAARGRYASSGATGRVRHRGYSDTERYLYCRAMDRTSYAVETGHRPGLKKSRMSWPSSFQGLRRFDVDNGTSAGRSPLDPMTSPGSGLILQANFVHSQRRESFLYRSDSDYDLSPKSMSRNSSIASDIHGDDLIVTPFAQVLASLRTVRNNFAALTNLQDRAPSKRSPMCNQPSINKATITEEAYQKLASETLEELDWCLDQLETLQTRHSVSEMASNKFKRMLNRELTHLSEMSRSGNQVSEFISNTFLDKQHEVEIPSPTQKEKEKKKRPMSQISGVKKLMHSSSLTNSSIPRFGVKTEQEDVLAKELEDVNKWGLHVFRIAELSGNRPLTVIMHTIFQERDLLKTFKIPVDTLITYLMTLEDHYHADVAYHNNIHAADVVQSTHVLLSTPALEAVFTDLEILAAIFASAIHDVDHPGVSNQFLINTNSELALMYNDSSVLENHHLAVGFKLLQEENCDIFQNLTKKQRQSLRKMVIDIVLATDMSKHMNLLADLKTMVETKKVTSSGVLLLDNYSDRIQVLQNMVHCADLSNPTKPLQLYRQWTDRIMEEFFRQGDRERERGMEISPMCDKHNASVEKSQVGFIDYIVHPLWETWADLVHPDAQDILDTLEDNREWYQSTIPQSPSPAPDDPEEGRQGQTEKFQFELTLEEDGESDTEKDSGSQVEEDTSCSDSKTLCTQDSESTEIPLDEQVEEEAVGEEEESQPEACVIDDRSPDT

Row | SMILES | AC50 [1] [µM] | AC50 [2] [µM] | AC50 [3] [µM] | AC50 [4] [µM] | AC50 [5] [µM] | AC50 [6] [µM] | AC50 [7] [µM] | AC50 [8] [µM] | AC50 [9] [µM] | AC50 [10] [µM] | AC50 [11] [µM]
1 | CN(C)/N=N/c1[nH]cnc1C(N)=O [DACARBAZINE] | > 10 | > 10 | > 10 | > 10 | > 10 | > 30 | > 10 | > 30 | > 10 | > 10 | > 30
2 | CO[C@H]1C[C@@H]2CC[C@@H](C)[C@@](O)(O2)C(=O)C(=O)N2CCCC[C@H]2C(=O)O[C@H]([C@H](C)C[C@@H]2CC[C@@H](O)[C@H](OC)C2)CC(=O)[C@H](C)/C=C(\C)[C@@H](O)[C@@H](OC)C(=O)[C@H](C)C[C@H](C)/C=C/C=C/C=C/1C [SIROLIMUS] | > 30 | > 10 | > 10 | > 30 | > 10 | > 30 | > 10 | > 30 | 5.6 | > 10 | > 30
3 | CCC(C)n1ncn(-c2ccc(N3CCN(c4ccc(OCC5COC(Cn6cncn6)(c6ccc(Cl)cc6Cl)O5)cc4)CC3)cc2)c1=O (stereo unspecified) [ITRACONAZOLE] | > 30 | > 30 | > 30 | > 30 | > 30 | > 30 | > 30 | 18 | > 30 | > 30 | > 30
4 | Nc1ccn([C@H]2CC[C@@H](CO)O2)c(=O)n1 [ZALCITABINE] | > 10 | > 10 | > 10 | > 10 | > 10 | > 30 | > 10 | > 30 | > 10 | > 10 | > 30
5 | NS(=O)(=O)Cc1noc2ccccc12 [ZONISAMIDE] | > 10 | > 10 | > 10 | > 10 | > 10 | > 30 | > 10 | > 30 | > 10 | > 10 | > 30
6 | c1cnc(N2CCN(Cc3ccc4c(c3)OCO4)CC2)nc1 [PIRIBEDIL] | > 30 | > 30 | > 30 | 30 | > 30 | > 30 | > 30 | > 30 | > 30 | 0.059 | > 30
7 | CS(=O)(=O)c1ccc(C2=C(c3ccccc3)C(=O)OC2)cc1 [ROFECOXIB] | > 30 | > 30 | > 30 | > 30 | > 10 | > 30 | > 30 | > 30 | > 10 | > 30 | > 10
8 | Cc1cn([C@H]2C[C@H](N=[N+]=[N-])[C@@H](CO)O2)c(=O)[nH]c1=O [ZIDOVUDINE] | > 30 | > 10 | > 10 | > 30 | > 10 | > 30 | > 10 | > 30 | > 10 | > 10 | > 30
9 | O=C(OCC(O)CO)c1ccccc1Nc1ccnc2cc(Cl)ccc12 (stereo unspecified) [GLAFENINE] | > 30 | > 10 | > 30 | > 30 | 28 | > 30 | > 30 | 0.17 | > 30 | > 30 | > 30
10 | CCCCN1C[C@H](O)[C@@H](O)[C@H](O)[C@H]1CO | > 30 | > 30 | > 30 | > 30 | > 30 | > 30 | > 30 | > 30 | > 30 | > 30 | > 30
11 | CC[C@H]1OC(=O)[C@H](C)[C@@H](O[C@H]2C[C@@](C)(OC)[C@@H](O)[C@H](C)O2)[C@H](C)[C@@H](O[C@@H]2O[C@H](C)C[C@H](N(C)C)[C@H]2O)[C@](C)(O)C[C@@H](C)CN(C)[C@H](C)[C@@H](O)[C@]1(C)O [AZITHROMYCIN] | > 30 | > 10 | > 10 | > 30 | > 10 | > 30 | > 10 | > 30 | > 10 | > 10 | > 10
12 | COCCCN1CCC(NC(=O)c2cc(Cl)c(N)c3c2OCC3)CC1 [PRUCALOPRIDE] | > 30 | > 30 | > 30 | > 30 | > 30 | > 30 | > 30 | > 30 | > 30 | > 30 | > 30
13 | Cc1cccc(Nc2ccccc2C(=O)O)c1C [MEFENAMIC ACID] | > 10 | > 10 | > 10 | > 10 | > 10 | > 30 | > 10 | > 30 | > 10 | > 10 | > 30
14 | CCOC(=O)[C@H](CCc1ccccc1)N[C@@H](C)C(=O)N1[C@H](C(=O)O)C[C@@H]2CCC[C@@H]21 | > 30 | > 10 | > 10 | > 30 | > 10 | > 30 | > 10 | > 30 | > 10 | > 10 | > 30
15 | Clc1ccc(C(c2ccccc2Cl)C(Cl)Cl)cc1 (stereo unspecified) [MITOTANE] | > 10 | > 10 | > 10 | > 10 | > 10 | > 30 | > 10 | > 30 | > 10 | > 10 | > 30
16 | O=C1Nc2ccc(Cl)cc2[C@@](C#CC2CC2)(C(F)(F)F)O1 [EFAVIRENZ] | 13 | > 10 | > 10 | > 30 | > 30 | 24 | > 10 | 15 | > 30 | > 10 | > 30
